Literature values in US20050148519A1, “Salts of pharmacologically active compounds” (priority 2003, published 2005).

How the values were obtained:
[1] = for Injection site reaction: intramuscular or subcutaneous for flunixin, route not given for the others
[2] = dog, oral 2.2, 6.6 and 11.0 mg/kg

Row | Time for injection site reactions to dissipate ([1]; in vivo) | Time flunixin is present in tissues at a pharmaceutically effective amount (injection in a conventional format) | Flunixin serum concentration immediately following administration (single dose 1.1 mg/kg) | Flunixin serum concentration within 4 hours of administration (single dose 1.1 mg/kg) | Time post administration to undetectable flunixin serum levels (single dose 1.1 mg/kg) | Compound | Injection site reaction [1] | Side effects following oral dosing [2]
1 | – | – | – | – | – | CN(C)[C@@H]1C(O)=C(C(N)=O)C(=O)[C@@]2(O)C(O)=C3C(=O)c4c(O)cccc4[C@@](C)(O)[C@H]3[C@H](O)[C@@H]12 [Oxytetracyclines, oxytetracycline] | severe injection site inflammations and even necrosis | –
2 | two to three days | – | – | – | – | CC[C@H]1OC(=O)C[C@@H](O)[C@H](C)[C@@H](O[C@@H]2O[C@H](C)[C@@H](O)[C@H](N(C)C)[C@H]2O)[C@@H](CCN2C[C@H](C)C[C@H](C)C2)C[C@@H](C)C(=O)/C=C/C(C)=C/[C@@H]1CO[C@@H]1O[C@H](C)[C@@H](O)[C@@H](OC)[C@H]1OC [tilmicosin] | mild injection site reactions | –
3 | – | 6 to 12 h | 8 to 13 µg/mL | sub micro gram/mL | 6 to 12 h | Cc1c(Nc2ncccc2C(=O)O)cccc1C(F)(F)F [flunixin] | can cause tissue damage | vomiting, diarrhea, blood in stools, and gastro-intestinal ulceration were common
